# Experimental data from patent publication US7157083B2, “Compositions and methods for treating retroviral infections” (priority 1998, dated 2007).
# Tested on: clinical isolate ROJO (low passage HIV-1) in human PBMCs
# Assay: Study 1 PBMC assay: reverse transcriptase activity after ROJO infection (Treatments A, B, C)
# Assay type: cell-based
# Experimental: Percent virus control (% VC) in the following tables is the mean RT activity (cpm) as a percentage of a virus control. Percent cell control (% CC) is the mean XTT absorbance as a percentage of a cell control.
# Peripheral blood monocular cells (PBMCs) are obtained from normal hepatitis and HIV-1 negative donors by ficoll hypaque gradient separation. Briefly, anti-coagulated blood is diluted 1:1 with Dulbecco's phosphate buffered saline without Ca^++ and Mg^++ (PBS) and layered over 14 mL of Lymphocyte separation media in a 50 ml centrifuge tube. Tubes are then centrifuged for 30 minutes at 600× g. Banded PBLs are gently aspirated from the resulting interface and subsequently washed 2× with PBS by low speed centrifugation. The mononuclear cells are counted, viability determined by Trypan Blue dye exclusion and resuspended in RPM1640 medium supplemented with 15% FBS (heat inactivated), 2 mM L-glutamine, 100 U/mL penicillin, 100 μg/mL streptomycin, and 10 μg/mL gentamycin with 2 μg/mL phytohemagluttin (PHA) at 1×10^6 cells/mL. The cells are cultured for 48 to 72 h at 37° C., 5% CO2 Following incubation, cells are collected by centrifugation, washed and resuspended in RPMI 1640 supplemented with 15% FBS (heat inactivated), 2 Mm L-glutamine, 100 U/mL penicillin, 100 μg/mL streptomycin, and 10 μg/mL gentamycin with 20 U/mL recombinant IL-2 (R & D Systems, Minneapolis, Minn.). IL-2 is included in the culture medium to maintain the cell division initiated by the PHA mitogenic stimulation. The cultures are then maintained until use by ½ culture volume change with fresh IL-2 containing medium every 3 days.
# Human peripheral blood mononuclear cells from a minimum of 2 donors, that have been blasted with PHA and IL-2, are counted, viability determined by Trypan Blue dye exclusion and mixed in equal ratios. Pooled donors are used to minimize the variability observed between individual donors which results from quantitative and qualitative differences in HIV infection and overall response to the PHA and IL-2 of primary lymphocyte populations. The cells are resuspended at 1×10^6 cells/mL in RPMI 1640 without phenol red supplemented with 15% Fetal Bovine Serum (heat inactivated), 2 mM L-glutamine, 100 U/mL penicillin, 100 μg/mL streptomycin, 10 μg/mL gentamycin and IL-2 (20 U/mL, R&D Systems, Minneapolis, Minn.). Fifty microliters of cells are then distributed to the inner 60 wells of a 96 well round bottom Microtiter culture plate in a standard format developed by the Infectious Disease Research department of Southern Research Institute. Each plate contains cell control wells (cells only), virus control wells (cell plus virus), and experimental wells (drug plus cells plus virus).
# Using an in-house computer program, IC50 (50% inhibition of virus replication), TC50 (50% reduction in cell viability) and a therapeutic index (TI, […]) were determined. AZT was used as a relevant positive control compound for the individual assays.
# This study compares the ability of hyaluronidase to AZT to lower viral replication as measured by reverse transcriptase levels. RT was measured on days 7, 14, and 21. Three different treatment regimens were used in the comparative study (Treatments A, B and C).
# Treatment A. Normal mixed PHA blasted human PBMCs (5×10e4/well) were pretreated with drug every 48 hours for 3 doses. On day 6 of pretreatment, cells were infected with clinical isolate ROJO. 48 hours post infection, treatment with drugs continued for an additional 3 treatments. Samples for assay were collected on D7 (day 7), 14, 21, post infection, frozen and later analyzed for reverse transcriptase.
# Treatment B. Normal mixed PHA blasted human PBMCs (as above) were plated in 96 wells and allowed to incubate for 48 hours (cells were set at same time as treatment A from same pool). Drug pretreatment started on day 2 and was repeated on day 4. On day 6, cell were infected as in treatment A, with concurrent addition of drug for a total of 3 treatments. […]
substance,measurement,setting,value
Hyaluronidase,RT activity % VC,"Treatment A, 0.00165 units/mL, Day 7",131.1%
same,RT activity % VC,"Treatment A, 0.00165 units/mL, Day 14",21.6%
same,RT activity % VC,"Treatment A, 0.00165 units/mL, Day 21",24.4%
same,RT activity % VC,"Treatment A, 0.00515 units/mL, Day 7",49.5%
same,RT activity % VC,"Treatment A, 0.00515 units/mL, Day 14",14.9%
same,RT activity % VC,"Treatment A, 0.00515 units/mL, Day 21",5.1%
same,RT activity % VC,"Treatment A, 0.01611 units/mL, Day 7",1.1%
same,RT activity % VC,"Treatment A, 0.01611 units/mL, Day 14",0.1%
same,RT activity % VC,"Treatment A, 0.01611 units/mL, Day 21",0.6%
same,RT activity % VC,"Treatment A, 0.05033 units/mL, Day 7",1.0%
same,RT activity % VC,"Treatment A, 0.05033 units/mL, Day 14",0.4%
same,RT activity % VC,"Treatment A, 0.05033 units/mL, Day 21",0.9%
same,RT activity % VC,"Treatment A, 0.15729 units/mL, Day 7",0.7%
same,RT activity % VC,"Treatment A, 0.15729 units/mL, Day 14",0.2%
same,RT activity % VC,"Treatment A, 0.15729 units/mL, Day 21",0.7%
same,RT activity % VC,"Treatment A, 0.49152 units/mL, Day 7",1.0%
same,RT activity % VC,"Treatment A, 0.49152 units/mL, Day 14",0.3%
same,RT activity % VC,"Treatment A, 0.49152 units/mL, Day 21",0.4%
same,RT activity % VC,"Treatment A, 1.536 units/mL, Day 7",1.6%
same,RT activity % VC,"Treatment A, 1.536 units/mL, Day 14",0.2%
same,RT activity % VC,"Treatment A, 1.536 units/mL, Day 21",1.2%
same,RT activity % VC,"Treatment A, 4.8 units/mL, Day 7",1.1%
same,RT activity % VC,"Treatment A, 4.8 units/mL, Day 14",0.3%
same,RT activity % VC,"Treatment A, 4.8 units/mL, Day 21",1.0%
same,RT activity % VC,"Treatment A, 15 units/mL, Day 7",1.1%
same,RT activity % VC,"Treatment A, 15 units/mL, Day 14",0.7%
same,RT activity % VC,"Treatment A, 15 units/mL, Day 21",1.1%
same,RT activity % VC,"Treatment B, 0.00165 units/mL, Day 7",47.1%
same,RT activity % VC,"Treatment B, 0.00165 units/mL, Day 14",10.5%
same,RT activity % VC,"Treatment B, 0.00165 units/mL, Day 21",5.1%
same,RT activity % VC,"Treatment B, 0.00515 units/mL, Day 7",6.0%
same,RT activity % VC,"Treatment B, 0.00515 units/mL, Day 14",1.0%
same,RT activity % VC,"Treatment B, 0.00515 units/mL, Day 21",0.8%
same,RT activity % VC,"Treatment B, 0.01611 units/mL, Day 7",3.6%
same,RT activity % VC,"Treatment B, 0.01611 units/mL, Day 14",0.6%
same,RT activity % VC,"Treatment B, 0.01611 units/mL, Day 21",0.2%
same,RT activity % VC,"Treatment B, 0.05033 units/mL, Day 7",3.0%
same,RT activity % VC,"Treatment B, 0.05033 units/mL, Day 14",0.4%
same,RT activity % VC,"Treatment B, 0.05033 units/mL, Day 21",0.9%
same,RT activity % VC,"Treatment B, 0.15729 units/mL, Day 7",2.8%
same,RT activity % VC,"Treatment B, 0.15729 units/mL, Day 14",0.4%
same,RT activity % VC,"Treatment B, 0.15729 units/mL, Day 21",0.5%
same,RT activity % VC,"Treatment B, 0.49152 units/mL, Day 7",4.9%
same,RT activity % VC,"Treatment B, 0.49152 units/mL, Day 14",0.4%
same,RT activity % VC,"Treatment B, 0.49152 units/mL, Day 21",0.3%
same,RT activity % VC,"Treatment B, 1.536 units/mL, Day 7",4.1%
same,RT activity % VC,"Treatment B, 1.536 units/mL, Day 14",0.2%
same,RT activity % VC,"Treatment B, 1.536 units/mL, Day 21",0.4%
same,RT activity % VC,"Treatment B, 4.8 units/mL, Day 7",1.9%
same,RT activity % VC,"Treatment B, 4.8 units/mL, Day 14",0.5%
same,RT activity % VC,"Treatment B, 4.8 units/mL, Day 21",1.2%
same,RT activity % VC,"Treatment B, 15 units/mL, Day 7",3.4%
same,RT activity % VC,"Treatment B, 15 units/mL, Day 14",0.5%
same,RT activity % VC,"Treatment B, 15 units/mL, Day 21",0.7%
same,RT activity % VC,"Treatment C, 0.00165 units/mL, Day 7",104.0%
same,RT activity % VC,"Treatment C, 0.00165 units/mL, Day 14",42.4%
same,RT activity % VC,"Treatment C, 0.00165 units/mL, Day 21",23.5%
same,RT activity % VC,"Treatment C, 0.00515 units/mL, Day 7",100.4%
same,RT activity % VC,"Treatment C, 0.00515 units/mL, Day 14",26.0%
same,RT activity % VC,"Treatment C, 0.00515 units/mL, Day 21",13.2%
same,RT activity % VC,"Treatment C, 0.01611 units/mL, Day 7",3.9%
same,RT activity % VC,"Treatment C, 0.01611 units/mL, Day 14",1.8%
same,RT activity % VC,"Treatment C, 0.01611 units/mL, Day 21",1.0%
same,RT activity % VC,"Treatment C, 0.05033 units/mL, Day 7",3.4%
same,RT activity % VC,"Treatment C, 0.05033 units/mL, Day 14",0.4%
same,RT activity % VC,"Treatment C, 0.05033 units/mL, Day 21",0.6%
same,RT activity % VC,"Treatment C, 0.15729 units/mL, Day 7",3.0%
same,RT activity % VC,"Treatment C, 0.15729 units/mL, Day 14",0.2%
same,RT activity % VC,"Treatment C, 0.15729 units/mL, Day 21",0.8%
same,RT activity % VC,"Treatment C, 0.49152 units/mL, Day 7",4.1%
same,RT activity % VC,"Treatment C, 0.49152 units/mL, Day 14",0.2%
same,RT activity % VC,"Treatment C, 0.49152 units/mL, Day 21",0.4%
same,RT activity % VC,"Treatment C, 1.536 units/mL, Day 7",2.7%
same,RT activity % VC,"Treatment C, 1.536 units/mL, Day 14",0.4%
same,RT activity % VC,"Treatment C, 1.536 units/mL, Day 21",0.6%
same,RT activity % VC,"Treatment C, 4.8 units/mL, Day 7",4.6%
same,RT activity % VC,"Treatment C, 4.8 units/mL, Day 14",0.4%
same,RT activity % VC,"Treatment C, 4.8 units/mL, Day 21",0.7%
same,RT activity % VC,"Treatment C, 15 units/mL, Day 7",3.2%
same,RT activity % VC,"Treatment C, 15 units/mL, Day 14",0.6%
same,RT activity % VC,"Treatment C, 15 units/mL, Day 21",0.7%
same,"reduction in viral replication as measured by reverse transcriptase, compared to AZT","Treatments A, B and C, days 7, 14, and 21",greater reduction in viral replication
